Literature values, collected in US20210330725A1, “GARCINIA MANGOSTANA EXTRACT FOR PROMOTING HAIR GROWTH” (PIERRE FABRE DERMO-COSMETIQUE, priority 2018, published 2021).

Test system: hair follicles
Settings: mice

Question: Which “effect on hair cycle of topical treatment in telogen phase” value does the source give for C[C@@H]1CCN(C(=O)CC#N)C[C@@H]1N(C)c1ncnc2[nH]ccc12 [Tofacitinib, tofacitinib] here?
Answer: Its value is “rapid re-entry at the beginning of anagen phase”.
